Data from article PMC4261083, “An atypical residue in the pore of Varroa destructor GABA-activated RDL receptors affects picrotoxin block and thymol modulation” (Insect Biochemistry and Molecular Biology, 2014).
Positions count from the first letter of the chain named.

What was measured:
Format in all cases: cell-based
[1] = molecular target: T1, A21′Q mutant Drosophila RDL receptor (Drosophila melanogaster, UniProt P25123, A320Q); test: Picrotoxin inhibition of GABA responses, two electrode voltage clamp in Xenopus oocytes
T1 construct: expressed in transfected cells; host or cells: Xenopus laevis oocytes injected with cRNA
T1 sequence (P25123 45-606 A320Q): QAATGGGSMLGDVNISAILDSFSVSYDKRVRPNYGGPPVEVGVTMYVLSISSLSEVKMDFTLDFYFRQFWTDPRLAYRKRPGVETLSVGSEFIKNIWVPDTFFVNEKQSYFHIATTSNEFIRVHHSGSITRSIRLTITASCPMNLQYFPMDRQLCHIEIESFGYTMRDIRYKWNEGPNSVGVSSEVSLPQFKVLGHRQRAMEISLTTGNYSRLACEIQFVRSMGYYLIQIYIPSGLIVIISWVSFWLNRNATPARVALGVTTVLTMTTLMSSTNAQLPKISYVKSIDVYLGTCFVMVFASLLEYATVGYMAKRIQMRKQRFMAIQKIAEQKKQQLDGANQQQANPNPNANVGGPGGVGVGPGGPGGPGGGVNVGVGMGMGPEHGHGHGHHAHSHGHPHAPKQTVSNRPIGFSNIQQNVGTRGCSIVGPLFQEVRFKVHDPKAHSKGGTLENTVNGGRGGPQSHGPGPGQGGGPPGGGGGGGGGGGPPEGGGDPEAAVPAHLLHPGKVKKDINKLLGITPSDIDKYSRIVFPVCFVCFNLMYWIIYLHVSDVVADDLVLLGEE
Procedure: (§1) X. laevis oocyte-positive females were purchased from NASCO (Fort Atkinson, Wisconsin, USA) and maintained according to standard methods. Harvested stage V-VI Xenopus oocytes were washed in four changes of ND96 (96 mM NaCl, 2 mM KCl, 1 mM MgCl2, 1 mM CaCl2, 5 mM HEPES, pH 7.5), de-folliculated in 1.5 mg ml^−1 collagenase Type 1A for approximately 2 h, washed again in four changes of ND96 and stored in ND96 containing 2.5 mM sodium pyruvate, 0.7 mM theophylline and […].
(§2) Drosophila RDL subunit cDNA (kindly gifted from N.Millar) was subcloned into pGEMHE for oocyte expression as previously described ([McGonigle and Lummis, 2010], [Millar et al., 1994]). Site directed mutagenesis was performed with the QuikChange mutagenesis kit (Agilent, La Jolla, CA). cRNA was transcribed in vitro from linearised pGEMHE cDNA template using the mMessage mMachine T7 Transcription kit (Ambion, Austin, Texas, USA). Stage V and VI oocytes were injected with 5 ng cRNA, incubated at 18 °C, and currents recorded 18–24 h post-injection.
(§3) Xenopus oocytes were clamped at −60 mV using an OC-725 amplifier (Warner Instruments, Connecticut, USA), Digidata 1322A and the Strathclyde Electrophysiology Software Package (Department of Physiology and Pharmacology, University of Strathclyde, UK), or using the Roboocyte (MultiChannel Systems). Currents were recorded at 5 kHz and filtered at a frequency of 1 kHz. Micro-electrodes were fabricated from borosilicate glass (GC120TF-10, Harvard Apparatus, Edenbridge, Kent, UK) using a one stage horizontal pull (P-87, Sutter Instrument Company, California, USA) and filled with 3 M KCl. Pipette resistances ranged from 1.0 to 2.0 MΩ. Oocytes were perfused with ND96 at a constant rate of 12 ml min^−1. Drug application was via a simple gravity fed system calibrated to run at the same rate.
(§4) Analysis and curve fitting was performed using Prism v5 (GraphPad Software, San Diego, California, USA). Concentration-response data for each oocyte was normalised to the maximum current for that oocyte. The mean and S.E.M. for a series of oocytes were fitted to the four parameter logistic equation in Prism.

[2] = molecular target: T2, T6′M mutant Drosophila RDL receptor (Drosophila melanogaster, UniProt P25123, T305M); test: as above
T2 construct: expressed in transfected cells; host or cells: Xenopus laevis oocytes injected with cRNA
T2 sequence (P25123 45-606 T305M): T1 sequence (P25123 45-606 A320Q) with T261M, Q276A
Procedure: as §1, §2, §3, §4

[3] = molecular target: T1, A21′Q mutant Drosophila RDL receptor; test: Thymol modulation of GABA concentration-response curves, two electrode voltage clamp in Xenopus oocytes
Procedure: as §1
(§5) Site directed mutagenesis was performed with the QuikChange mutagenesis kit (Agilent, La Jolla, CA). cRNA was transcribed in vitro from linearised pGEMHE cDNA template using the mMessage mMachine T7 Transcription kit (Ambion, Austin, Texas, USA). Stage V and VI oocytes were injected with 5 ng cRNA, incubated at 18 °C, and currents recorded 18–24 h post-injection.
(§6) Currents were recorded at 5 kHz and filtered at a frequency of 1 kHz. Micro-electrodes were fabricated from borosilicate glass (GC120TF-10, Harvard Apparatus, Edenbridge, Kent, UK) using a one stage horizontal pull (P-87, Sutter Instrument Company, California, USA) and filled with 3 M KCl. […] Oocytes were perfused with ND96 at a constant rate of 12 ml min^−1. Drug application was via a simple gravity fed system calibrated to run at the same rate.
as §4

[4] = molecular target: T2, T6′M mutant Drosophila RDL receptor; test: as above
Procedure: as §1, §5, §6, §4

[5] = GABA EC50 control vs +100 μM thymol
[6] = GABA concentration-response in presence of 100 μM thymol

Row | Compound | IC50 [1] | Picrotoxin pIC50 [1] | Sensitivity to PTX ([2]; PTX up to 100 μM) | IC50 ([2]; inhibition of GABA responses, read-out: Picrotoxin pIC50 (converted)) | Effect of thymol on GABA-induced responses ([3]; 100 μM thymol, 1 μM GABA) | Fold change in EC50 [3, 5] | % Imax [3, 6] | Effect of thymol on GABA-induced responses ([4]; 100 μM thymol, at some GABA concentrations) | Fold change in EC50 [4, 5] | % Imax [4, 6]
1 | picrotoxin | 360 nM | 6.45 ± 0.25 | insensitive | > 100000 nM |  |  |  |  |  | 
2 | Cc1ccc(C(C)C)c(O)c1 [Thymol, thymol] |  |  |  |  | enhance | 3.6 | 89 ± 4% | inhibition | 3.4 | 35 ± 9%
